Data as given in patent publication US10239861B2, “Therapeutic compounds and uses thereof” (GENENTECH, INC., priority 2015, dated 2019).

Target: PCAF bromodomain (His/Flag epitope tagged PCAF719-832) (Homo sapiens (Human), UniProt Q92831)
Assay: PCAF AlphaLisa binding assay
Settings: AlphaLisa; PCAF bromodomain 225 nM, biotinylated small molecule ligand 6 nM; read-out: PCAF IC50
Description: IC50 Measurements for Inhibitors Using PCAF AlphaLisa Binding Assay
PCAF bromodomain binding and inhibition of the compounds disclosed herein was assessed by monitoring the engagement of biotinylated small molecule ligand (known to bind to the PCAF bromodomain) with the target using the AlphaLisa technology (Perkin-Elmer).

PCAF bromodomain (His/Flag epitope tagged PCAF719-832), sequence (Q92831 719-832): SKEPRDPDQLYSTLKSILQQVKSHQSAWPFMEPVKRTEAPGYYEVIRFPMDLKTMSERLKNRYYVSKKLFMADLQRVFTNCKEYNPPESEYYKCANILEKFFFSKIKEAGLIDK

Row | SMILES | IC50 [nM]
1 | Cn1ncc(NC2CCCN(Cc3nc(-c4ccc(Cl)cc4)no3)C2)c(Cl)c1=O (stereo not shown) [Example 55, 4-chloro-5-[[1-[[3-(4-chlorophenyl)-1,2,4-oxadiazol-5-yl]methyl]-3-piperidyl]amino]-2-methyl-pyridazin-3-one] | 466
2 | Cn1ncc(NC2CCCN(Cc3ccc(F)cc3)C2)c(Cl)c1=O (stereo not shown) [Example 56, 4-chloro-5-[[1-[(4-fluorophenyl)methyl]-3-piperidyl]amino]-2-methyl-pyridazin-3-one] | 139
3 | CN1CCCC[C@H](Nc2cnn(C)c(=O)c2Cl)C1 [Example 57, (S)-4-chloro-2-methyl-5-((1-methylazepan-3-yl)amino)pyridazin-3(2H)-one] | 32.9
4 | CN1CCCC[C@@H](Nc2cnn(C)c(=O)c2Cl)C1 [Example 58, (R)-4-chloro-2-methyl-5-((1-methylazepan-3-yl)amino)pyridazin-3(2H)-one] | 169
